Source: US20240301472A1, “NUCLEIC ACID DETECTION METHOD, COMPOUND AND FLUORESCENT PROBE” (WAKAYAMA UNIVERSITY, priority 2020, published 2024)

Columns and labels:
fixed HeLa cells = assay: Competition experiment with Hoechist 33258 using fixed HeLa cells; assay type: cell-based; conditions: Hoechist 33258 0-6.0 μM with compound 10 (6 μM) in PBS
Method: In a ninth experiment, a competition experiment with Hoechist 33258 was performed using fixed HeLa cells. As the staining liquid, one obtained by causing Hoechist 33258 at an arbitrary concentration (0 μM, 1.5 μM, 3.0 μM, 6.0 μM) to coexist in a PBS solution of the compound 10 (6 μM) was used, and the experiment was performed according to an operation similar to that in the fourth experiment. […] In FIG. 27, “Ph” is a phase contrast observation image of cells at each concentration of Hoechist 33258. “Hoe” is a 460 nm fluorescence image at each concentration of Hoechist 33258. The fluorescence wavelength of Hoechist 33258 is 460 nm. “600 nm” is a 600 nm fluorescence image. “700 nm” is a 700 nm fluorescence image. “600 nm/700 nm” is a synthesized image of “600 nm” and “700 nm”. “Magnified 600 nm/700 nm” is a magnified image of “600 nm/700 nm”.

living HeLa cells = assay: Competition experiment with Hoechist 33258 using living HeLa cells; assay type: cell-based; conditions: Hoechist 33258 0-20 μM with compound 10 (1 μM) in 5% glucose
Method: In a tenth experiment, a competition experiment with Hoechist 33258 was performed using living HeLa cells. As the staining liquid, one obtained by causing Hoechist 33258 at an arbitrary concentration (0 μM, 5.0 μM, 10 μM, 20 μM) to coexist in a 5% glucose solution of the compound 10 (1 μM) was used, and the experiment was performed according to an operation similar to that in the sixth experiment. […] In FIG. 28, “600 nm” is a 600 nm fluorescence image. “700 nm” is a 700 nm fluorescence image. “Hoe” is a 460 nm fluorescence image at each concentration of Hoechist 33258. “Merged” is a synthesized image of “600 nm”, “700 nm”, and “Hoe”.

[1] = tested on: viable cells (HeLA, A549, HEK293, MRC-5); assay: Tracking of quadruplex nucleic acid formation in viable cells stained by compound 10 (response to PDS); assay type: cell-based; conditions: PDS 20 μM added to viable cells stained by compound 10 (1 μM)
Method: In the seventh experiment, pyridostatin (PDS: 20 μM) was added to viable cells stained by the same method as that in the sixth experiment and temporal change of a fluorescence image thereafter was observed. Pyridostatin (PDS) is a reagent for stabilizing quadruplex nucleic acids. FIG. 24 and FIG. 25 show the result of the seventh experiment.
In FIG. 25 as well, a case where PDS was added to the viable cells stained by the compound 10 was indicated with PDS (+), and a case where PDS was not added was indicated with PDS (−). In FIG. 25, the vertical axis represents intensity ratio between 600 nm fluorescence and 700 nm fluorescence, and the horizontal axis represents time after addition of PDS.

ds(AAATTT) being a dsDNA = conditions: conventional fluorescent ds probe, comparison value, read-out: dissociation constant; cited from earlier work

Compound: CN1CCN(c2ccc3[nH]c(-c4ccc5[nH]c(-c6ccc(O)cc6)nc5c4)nc3c2)CC1 [Hoechist 33258]
- 600 nm fluorescence intensity of compound 10 with increasing Hoechist 33258 concentration (fixed HeLa cells): significantly decreased
- 600 nm fluorescence intensity of compound 10 with increasing Hoechist 33258 concentration (living HeLa cells): significantly decreased

Compound: NCCOc1cc(C(=O)Nc2cc(OCCN)c3ccccc3n2)nc(C(=O)Nc2cc(OCCN)c3ccccc3n2)c1 [PDS, Pyridostatin]
- intensity ratio of 700 nm fluorescence to 600 nm fluorescence [1]: increased

Compound: C[n+]1c(/C=C/c2ccc(O)c(/C=C/c3sc4ccccc4[n+]3C)c2)sc2ccccc21 [QCy-DT, quinone cyanine-dithiazole]
- Kd (ds(AAATTT) being a dsDNA): ~670 nM
